In experiment [1] the test system is HEK293T. The experiment is described as follows: Inhibition of recombinant caspae-1 C285A mutant (unknown origin) to GSDMD (unknown origin) interaction expressed in HEK293T cells. The following applies: Homo sapiens. The format is cell-based.
The test system of experiment [2] is J774.A1. The experiment is described as follows: Inhibition of pyroptosis in mouse J774.A1 cells assessed as reduction in caspase-1 to GSDMD interaction at 1 uM pretreated with LPS for 3 hrs followed by compound addition in presence of nigericin by immunoprecipitation analysis. The format is functional, cell-based.
Experiment [3] addresses NACHT, LRR and PYD domains-containing protein 3 (Mus musculus) (UniProt Q8R4B8). The experiment is described as follows: Inhibition of NLRP3 inflammasome activation in mouse J774.A1 cells assessed as reduction in NLRP3 mRNA expression at 0.5 to 2 uM preincubated for 30 mins followed by LPS stimulation for 24 hrs by RT-qPCR analysis. The format is cell-based. Conditions: dose 0.5-2 µM, time 24.5 hrs. In general terms: In qPCR the cycle at which signal appears reflects the starting amount.

The target is the same in experiment [4]. The experiment is described as follows: Inhibition of NLRP3 inflammasome activation activation in LPS/nigericin stimulated mouse J774.A1 cells assessed as reduction in IL-1beta production pretreated with LPS for 3 hrs prior to compound addition for 30 mins followed by nigericin addition and measured after 45 mins by ELISA. The format is cell-based. The following applies: dose 0.001-2000 nM, time 75.0 min.

For experiment [5] the target is unchanged. The experiment is described as follows: Inhibition of NLRP3 inflammasome activation in LPS primed Casp1 knockout mouse BMDM cells transfected with caspase-1 C284A mutant assessed as reduction in IL-1beta release at 2 uM preincubated for 30 mins followed by nigericin stimulation. The format is cell-based.
Experiment [6] concerns Caspase-1 (Homo sapiens), P29466 [C285A]. The experiment is described as follows: Binding affinity to recombinant caspase-1 C285A mutant (unknown origin) at 2 uM by SDS-PAGE analysis.
Sequence of Caspase-1 (Homo sapiens), P29466 [C285A] (P29466 whole entry C285A): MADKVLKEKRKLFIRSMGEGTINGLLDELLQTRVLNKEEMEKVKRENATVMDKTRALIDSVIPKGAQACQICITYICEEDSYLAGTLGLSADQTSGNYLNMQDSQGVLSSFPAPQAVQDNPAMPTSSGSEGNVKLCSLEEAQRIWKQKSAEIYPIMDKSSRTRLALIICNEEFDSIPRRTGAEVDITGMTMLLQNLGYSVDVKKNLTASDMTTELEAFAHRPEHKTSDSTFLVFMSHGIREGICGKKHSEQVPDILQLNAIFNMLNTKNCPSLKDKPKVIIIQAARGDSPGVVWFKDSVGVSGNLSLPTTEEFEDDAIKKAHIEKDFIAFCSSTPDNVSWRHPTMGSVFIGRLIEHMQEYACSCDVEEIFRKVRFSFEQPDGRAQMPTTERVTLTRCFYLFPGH
Experiment [7] concerns J774.A1. The experiment is described as follows: Downregulation of p65 phosphorylation in mouse J774.A1 cells at 0.5 to 2 uM preincubated for 30 mins followed by LPS addition and measured after 2 hrs by Western blotting analysis. It counts as functional, cell-based. Conditions: dose 0.5-2 µM, time 2.5 hrs.
Experiment [8] addresses NACHT, LRR and PYD domains-containing protein 3 (Homo sapiens) (UniProt Q96P20). The experiment is described as follows: Inhibition of NLRP3 inflammasome activation in LPS/nigericin stimulated human THP-1 cells assessed as reduction in IL-1beta production at 1 uM pretreated with LPS for 3 hrs followed by compound addition for 30 mins prior to nigericin stimulation for 45 mins by ELISA. The format is cell-based. The following applies: time 75.0 min.

The target in a further experiment is T1, Caspase-1 (Homo sapiens) (UniProt P29466).
T1 sequence (whole entry): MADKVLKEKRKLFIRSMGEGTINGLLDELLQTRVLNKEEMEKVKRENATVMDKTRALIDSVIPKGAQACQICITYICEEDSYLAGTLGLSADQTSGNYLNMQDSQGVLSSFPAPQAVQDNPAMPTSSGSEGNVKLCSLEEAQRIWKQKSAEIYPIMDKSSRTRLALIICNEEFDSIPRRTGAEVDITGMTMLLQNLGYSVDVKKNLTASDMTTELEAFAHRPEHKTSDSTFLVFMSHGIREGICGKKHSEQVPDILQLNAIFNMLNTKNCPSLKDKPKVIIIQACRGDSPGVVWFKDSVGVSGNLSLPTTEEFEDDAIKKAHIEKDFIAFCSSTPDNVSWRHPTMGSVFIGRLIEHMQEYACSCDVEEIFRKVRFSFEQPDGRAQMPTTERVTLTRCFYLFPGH
The experiment is described as follows: Inhibition of recombinant human caspase-1 expressed in Escherichia coli BL21 cells assessed as remaining activity at 100 uM using […] as substrate incubated for 30 mins relative to control.

The test system of experiment [9] is Mus musculus. The experiment is described as follows: Anti-inflammatory activity in MSU/C18:0 free fatty acid induced Kunming mouse model of gouty arthritis assessed as effect on ASC expression at 5 to 20 mg/kg, ip preadministered with compound for 30 mins followed by MSU/C18:0 free fatty acid injection and measured after 24 hrs by Western blotting analysis. Conditions: dose 5-20 mg/kg, time 24.5 hrs. The format is functional, organism-based.

A further experiment has as its system THP-1. The experiment is described as follows: Effect on cleaved caspase-5 expression in human THP-1 cells at 2 uM pretreated with pam3CSK4 for 3 hrs followed by compound addition for 30 mins prior to cytosolic LPS stimulation for 16 hrs by ELISA. The following applies: time 16.5 hrs. The format is functional, cell-based. Background: In an ELISA, binding on a coated surface is turned into a signal by an enzyme label.

Experiment [10] has as its system HEK293T. The experiment is described as follows: Inhibition of recombinant caspae-1 C285A/C397A double mutant (unknown origin) to GSDMD (unknown origin) interaction expressed in HEK293T cells. The format is cell-based. Conditions: Homo sapiens.
Experiment [11] deals with NACHT, LRR and PYD domains-containing protein 3 (Mus musculus) (UniProt Q8R4B8). The experiment is described as follows: Inhibition of NLRP3 inflammasome activation in LPS/nigericin stimulated mouse J774.A1 cells assessed as reduction in IL-18 production pretreated with LPS for 3 hrs prior to compound addition for 30 mins followed by nigericin addition and measured after 45 mins by ELISA. It counts as cell-based. The following applies: time 75.0 min.
Sequence of NACHT, LRR and PYD domains-containing protein 3 (Mus musculus) (Q8R4B8 whole entry, the tested form may be a part): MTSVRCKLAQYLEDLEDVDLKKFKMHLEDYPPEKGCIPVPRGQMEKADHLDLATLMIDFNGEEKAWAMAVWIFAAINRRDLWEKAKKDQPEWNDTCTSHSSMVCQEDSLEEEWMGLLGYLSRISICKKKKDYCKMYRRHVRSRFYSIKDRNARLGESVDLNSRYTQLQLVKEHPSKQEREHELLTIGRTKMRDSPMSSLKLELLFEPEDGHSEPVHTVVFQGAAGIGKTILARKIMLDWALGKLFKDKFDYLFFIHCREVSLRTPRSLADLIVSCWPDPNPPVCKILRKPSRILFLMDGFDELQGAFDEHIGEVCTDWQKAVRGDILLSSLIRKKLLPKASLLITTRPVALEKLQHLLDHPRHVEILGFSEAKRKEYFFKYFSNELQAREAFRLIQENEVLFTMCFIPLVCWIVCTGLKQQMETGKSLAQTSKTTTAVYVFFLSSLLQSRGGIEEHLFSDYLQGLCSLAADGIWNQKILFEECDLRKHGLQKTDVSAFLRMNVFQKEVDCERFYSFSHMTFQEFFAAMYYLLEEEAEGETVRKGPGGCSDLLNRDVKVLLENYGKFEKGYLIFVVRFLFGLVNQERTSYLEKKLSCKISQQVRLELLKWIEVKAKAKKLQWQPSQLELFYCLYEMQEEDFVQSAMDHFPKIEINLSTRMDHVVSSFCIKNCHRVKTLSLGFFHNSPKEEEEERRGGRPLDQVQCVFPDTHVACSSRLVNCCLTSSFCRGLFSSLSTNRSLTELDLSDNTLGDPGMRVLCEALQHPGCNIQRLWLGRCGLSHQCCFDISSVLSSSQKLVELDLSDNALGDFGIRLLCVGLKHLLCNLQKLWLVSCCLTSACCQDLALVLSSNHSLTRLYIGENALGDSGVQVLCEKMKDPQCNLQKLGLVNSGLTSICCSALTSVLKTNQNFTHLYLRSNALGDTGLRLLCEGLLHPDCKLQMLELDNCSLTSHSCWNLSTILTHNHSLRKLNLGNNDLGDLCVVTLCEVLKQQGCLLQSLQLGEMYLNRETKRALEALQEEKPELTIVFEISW

For experiment [12] the target is unchanged. The experiment is described as follows: Inhibition of NLRP3 inflammasome activation in LPS primed Casp1 knockout mouse BMDM cells transfected with caspase-1 C285A mutant assessed as reduction in IL-1beta release at 2 uM preincubated for 30 mins followed by nigericin stimulation. The format is cell-based.
A further experiment deals with T2, Caspase-3 (Mus musculus) (UniProt P70677).
T2 sequence (whole entry): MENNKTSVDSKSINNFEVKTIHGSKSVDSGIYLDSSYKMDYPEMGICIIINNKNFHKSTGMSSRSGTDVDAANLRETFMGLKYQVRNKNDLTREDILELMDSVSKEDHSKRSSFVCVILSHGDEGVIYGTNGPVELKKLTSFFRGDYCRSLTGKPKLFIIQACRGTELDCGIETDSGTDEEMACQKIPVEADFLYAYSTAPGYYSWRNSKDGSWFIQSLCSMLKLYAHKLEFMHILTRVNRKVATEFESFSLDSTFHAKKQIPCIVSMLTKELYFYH
The experiment is described as follows: Inhibition of cisplatin induced caspase-3 activation in mouse J774.A1 cells at 2 uM preincubated for 30 mins followed by cisplatin addition and incubated overnight. The format is cell-based.

In experiment [13] the test system is Mus musculus. The experiment is described as follows: Anti-inflammatory activity in MSU/C18:0 free fatty acid induced ip dosed Casp1 knockout Kunming mouse model of gouty arthritis assessed as reduction in IL-beta production preadministered with compound for 30 mins followed by MSU/C18:0 free fatty acid injection and measured after 24 hrs by ELISA. It counts as functional, organism-based. Conditions: time 24.5 hrs.

The source made the active and inactive calls. The calls are words filed in the database; no cut-off is given here.

Sequence of NACHT, LRR and PYD domains-containing protein 3 (Homo sapiens) (Q96P20 whole entry, the tested form may be a part): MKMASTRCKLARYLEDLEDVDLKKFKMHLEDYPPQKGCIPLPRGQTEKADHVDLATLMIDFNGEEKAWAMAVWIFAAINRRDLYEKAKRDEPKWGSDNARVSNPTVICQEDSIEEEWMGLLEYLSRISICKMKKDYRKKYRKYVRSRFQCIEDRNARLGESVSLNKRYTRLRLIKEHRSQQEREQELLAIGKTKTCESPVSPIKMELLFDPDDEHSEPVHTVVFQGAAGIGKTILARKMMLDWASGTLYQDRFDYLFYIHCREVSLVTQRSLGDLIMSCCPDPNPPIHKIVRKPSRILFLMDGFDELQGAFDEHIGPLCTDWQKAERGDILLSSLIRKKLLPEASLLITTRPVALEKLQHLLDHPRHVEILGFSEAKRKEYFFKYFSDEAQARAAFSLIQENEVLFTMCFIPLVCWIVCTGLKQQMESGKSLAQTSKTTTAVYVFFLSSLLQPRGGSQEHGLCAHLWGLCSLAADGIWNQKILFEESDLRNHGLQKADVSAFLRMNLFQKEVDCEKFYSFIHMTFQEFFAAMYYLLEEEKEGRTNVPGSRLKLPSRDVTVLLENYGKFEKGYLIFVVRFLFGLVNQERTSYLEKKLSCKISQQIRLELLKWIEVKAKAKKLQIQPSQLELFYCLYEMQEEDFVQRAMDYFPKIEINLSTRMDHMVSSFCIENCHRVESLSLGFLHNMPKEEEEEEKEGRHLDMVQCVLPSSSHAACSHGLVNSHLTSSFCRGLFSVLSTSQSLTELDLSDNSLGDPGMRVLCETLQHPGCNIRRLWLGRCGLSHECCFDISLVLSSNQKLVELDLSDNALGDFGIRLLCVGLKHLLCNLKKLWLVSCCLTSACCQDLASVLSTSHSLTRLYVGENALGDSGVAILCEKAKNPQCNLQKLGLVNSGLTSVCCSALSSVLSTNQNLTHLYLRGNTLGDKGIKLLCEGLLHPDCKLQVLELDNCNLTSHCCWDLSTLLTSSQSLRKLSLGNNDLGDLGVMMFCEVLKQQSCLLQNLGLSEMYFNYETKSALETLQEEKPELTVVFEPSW

On to `COc1ccc2c(c1)[C@]1(C=C[C@H](N=C=S)C[C@H]1C(=O)OC(C)(C)C)C(=O)N2C(=O)OCc1ccccc1`, for which the inhibition entry (in the experiment with HEK293T [1]; in experiment [5]; with HEK293T [10]; in experiment [12]; on Caspase-3 (Mus musculus)) was “inactive” in each case. For the same compound, the inhibition result (in the experiment on J774.A1 [2]; in [3]; in [8]) was “Active” in each case. Moreover, the inhibition entry in experiment [4] and in experiment [11] was “Dose-Dependent Effect” throughout. For the same compound, the outcome (in [6]; in the experiment on Mus musculus [9]; in the experiment with THP-1; with Mus musculus [13]) was inactive. The result with J774.A1 [7] was Active. Moreover, on Caspase-1 (Homo sapiens), the Activity was 16%.

The values are drawn from ChEMBL document CHEMBL5584334, “Discovery of a Covalent Inhibitor of Pro-Caspase-1 Zymogen Blocking NLRP3 Inflammasome Activation and Pyroptosis” (J Med Chem, 2024).
